{"source": "ChEMBL document CHEMBL2074536", "about": "“Characterization of stably transfected kidney epithelial cell line expressing rat H+/peptide cotransporter PEPT1: localization of PEPT1 and transport of beta-lactam antibiotics” (J Pharmacol Exp Ther, 1997)", "molecules": {"B1": {"name": "Solute carrier family 15 member 1 (Rattus norvegicus), P51574 (protein)", "chain": "MGMSKSRGCFGYPLSIFFIVVNEFCERFSYYGMRALLVLYFRNFLGWDDDLSTAIYHTFVALCYLTPILGALIADSWLGKFKTIVSLSIVYTIGQAVISVSSINDLTDHDHDGSPNNLPLHVALSMIGLALIALGTGGIKPCVSAFGGDQFEEGQEKQRNRFFSIFYLAINAGSLLSTIITPILRVQQCGIHSQQACYPLAFGVPAALMAVALIVFVLGSGMYKKFQPQGNIMGKVAKCIRFAIKNRFRHRSKAFPKRNHWLDWAKEKYDERLISQIKIMTKVMFLYIPLPMFWALFDQQGSRWTLQATTMTGKIGTIEIQPDQMQTVNAILIVIMVPIVDAVVYPLIAKCGFNFTSLKKMTVGMFLASMAFVVAAIVQVEIDKTLPVFPSGNQVQIKVLNIGNNDMAVYFPGKNVTVAQMSQTDTFMTFDVDQLTSINVSSPGSPGVTTVAHEFEPGHRHTLLVWGPNLYRVVKDGLNQKPEKGENGIRFVSTLNEMITIKMSGKVYENVTSHSASNYQFFPSGQKDYTINTTEIAPNCSSDFKSSNLDFGSAYTYVIRSRASDGCLEVKEFEDIPPNTVNMALQIPQYFLLTCGEVVFSVTGLEFSYSQAPSNMKSVLQAGWLLTVAIGNIIVLIVAEAGHFDKQWAEYVLFASLLLVVCIIFAIMARFYTYINPAEIEAQFDEDEKKKGVGKENPYSSLEPVSQTNM"}}, "assay_type_in_all_cases": "functional, cell-based", "key": {"[1]": {"biological_target": "T1, Solute carrier family 15 member 1 (Rattus norvegicus) (UniProt P51574)", "T1 sequence (whole entry)": "B1 chain", "test": "TP_TRANSPORTER: inhibition of Ceftibuten uptake (Ceftibuten: 1000 uM, Gly-Sar: 10000 uM) in PEPT1-expressing LLC-PK1 cells"}, "[2]": {"biological_target": "T1, Solute carrier family 15 member 1 (Rattus norvegicus)", "test": "TP_TRANSPORTER: inhibition of Cephradine uptake (Cephradine: 1000 uM, Gly-Sar: 10000 uM) in PEPT1-expressing LLC-PK1 cells"}, "[3]": {"biological_target": "T1, Solute carrier family 15 member 1 (Rattus norvegicus)", "test": "(§1) TP_TRANSPORTER: uptake in PEPT1-expressing LLC-PK1 cells"}, "[4]": {"biological_target": "T1, Solute carrier family 15 member 1 (Rattus norvegicus)", "test": "TP_TRANSPORTER: inhibition of Ceftibuten uptake (Ceftibuten: 1000 uM, Bestatin: 10000 uM) in PEPT1-expressing LLC-PK1 cells"}, "[5]": {"biological_target": "T1, Solute carrier family 15 member 1 (Rattus norvegicus)", "test": "TP_TRANSPORTER: inhibition of Cephradine uptake (Cephradine: 1000 uM, Bestatin: 10000 uM) in PEPT1-expressing LLC-PK1 cells"}, "[6]": {"biological_target": "T1, Solute carrier family 15 member 1 (Rattus norvegicus)", "test": "TP_TRANSPORTER: inhibition of Cephradine uptake (Cephradine: 1000 uM, Gly-Leu: 10000 uM) in PEPT1-expressing LLC-PK1 cells"}, "[7]": {"biological_target": "T1, Solute carrier family 15 member 1 (Rattus norvegicus)", "test": "TP_TRANSPORTER: inhibition of Ceftibuten uptake (Ceftibuten: 1000 uM, Gly-Leu: 10000 uM) in PEPT1-expressing LLC-PK1 cells"}, "[8]": {"biological_target": "T1, Solute carrier family 15 member 1 (Rattus norvegicus)", "test": "TP_TRANSPORTER: inhibition of Ceftibuten uptake (Ceftibuten: 1000 uM, Gly-Gly-Phe: 10000 uM) in PEPT1-expressing LLC-PK1 cells"}, "[9]": {"biological_target": "T1, Solute carrier family 15 member 1 (Rattus norvegicus)", "test": "TP_TRANSPORTER: inhibition of Cephradine uptake (Cephradine: 1000 uM, Gly-Gly-Phe: 10000 uM) in PEPT1-expressing LLC-PK1 cells"}, "[10]": {"biological_target": "T1, Solute carrier family 15 member 1 (Rattus norvegicus)", "test": "TP_TRANSPORTER: inhibition of Ceftibuten uptake (Ceftibuten: 1000 uM, Cefixime: 10000 uM) in PEPT1-expressing LLC-PK1 cells"}, "[11]": {"biological_target": "T1, Solute carrier family 15 member 1 (Rattus norvegicus)", "test": "TP_TRANSPORTER: inhibition of Cephradine uptake (Cephradine: 1000 uM, Ceftibuten: 5000 uM) in PEPT1-expressing LLC-PK1 cells"}, "[12]": {"substrate": "CC1=C(C(=O)O)N2C(=O)[C@@H](NC(=O)[C@H](N)C3=CCC=CC3)[C@H]2SC1", "test": "as §1"}, "[13]": {"substrate": "Nc1nc(/C(=C/CC(=O)O)C(=O)N[C@@H]2C(=O)N3C(C(=O)O)=CCS[C@H]23)cs1", "test": "as §1"}}, "note": "Where a SMILES comes first, the peptide text is derived from it."}
{"molecule": "CN(CC(=O)O)C(=O)CN", "note": "(HELM PEPTIDE1{G.[Sar]}$$$$V2.0)", "values": [{"measurement": "Activity", "setting": "[1]", "result": "inhibitor [+]"}, {"measurement": "Activity", "setting": "[2]", "result": "inhibitor [+]"}]}
{"molecule": "CC(C)C[C@H](NC(=O)[C@@H](O)[C@H](N)Cc1ccccc1)C(=O)O", "values": [{"measurement": "Activity", "setting": "[3]", "result": "substrate [+]"}, {"measurement": "Activity", "setting": "[4]", "result": "inhibitor [+]"}, {"measurement": "Activity", "setting": "[5]", "result": "inhibitor [+]"}]}
{"molecule": "CC(C)C[C@H](NC(=O)CN)C(=O)O", "values": [{"measurement": "Activity", "setting": "[6]", "result": "inhibitor [+]"}, {"measurement": "Activity", "setting": "[7]", "result": "inhibitor [+]"}]}
{"molecule": "NCC(=O)NCC(=O)N[C@@H](Cc1ccccc1)C(=O)O", "note": "(H-Gly-Gly-Phe-OH)", "values": [{"measurement": "Activity", "setting": "[8]", "result": "inhibitor [+]"}, {"measurement": "Activity", "setting": "[9]", "result": "inhibitor [+]"}]}
{"molecule": "C=CC1=C(C(=O)O)N2C(=O)[C@@H](NC(=O)/C(=N\\OCC(=O)O)c3csc(N)n3)[C@H]2SC1", "values": [{"measurement": "Activity", "setting": "[10]", "result": "inhibitor [+]"}]}
{"molecule": "Nc1nc(/C(=C/CC(=O)O)C(=O)N[C@@H]2C(=O)N3C(C(=O)O)=CCS[C@H]23)cs1", "values": [{"measurement": "Activity", "setting": "[11]", "result": "inhibitor [+]"}]}
{"molecule": "B1", "values": [{"measurement": "Km", "setting": "[12]", "result": 8.2, "unit": "mM"}, {"measurement": "Km", "setting": "[13]", "result": 1.5, "unit": "mM"}]}
